For 11 compounds, inhibition results are on record in US8796268B2, “Heteroaryls and uses thereof” (Millennium Pharmaceuticals, Inc., priority 2010, dated 2014).

Holding throughout (assay type): biochemical
The target of one assay is T1, Human PI3K alpha (Homo sapiens, UniProt P42336).
T1 construct: His (N); host or cells: SF9 insect cells (baculovirus)
Kind of assay: Human PI3K alpha enzyme assay (HTRF). Conditions: at a 1.1 μM concentration; read-out: PI3Kα Percent Inhibition. A general note: In TR-FRET formats the signal depends on donor and acceptor labels being close together.

A further assay has as its target T2, Human PI3K beta (Homo sapiens, UniProt P42338).
T2 construct: His (N); host or cells: SF9 insect cells (baculovirus)
As to the kind of experiment: Human PI3K beta enzyme assay (HTRF). Conditions: at a 1.1 μM concentration; read-out: PI3β Percent Inhibition. An outline of the steps:
(§1)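 Compounds were mixed with 25 uM ATP, then with 3.5 uM di-C8 PI(4,5)P2 and His-tagged PI3K isoform (β 5.25 nM, δ 0.75 nM, γ 5 nM) at pH 7.00. After 30 min at room temperature, EDTA stopped the reaction and PIP3 was measured by HTRF over 1 h.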

In a further assay the target is T3, Human PI3K delta (Homo sapiens, UniProt O00329).
T3 construct: His (N); host or cells: SF9 insect cells (baculovirus)
As to the kind of experiment: Human PI3K delta enzyme assay (HTRF). The note with it: at a 1.0 μM concentration; read-out: PI3Kδ Percent Inhibition. An outline of the steps:
as §1

The target in a further assay is T4, Human PI3K gamma (Homo sapiens, UniProt P48736).
T4 construct: His (N); host or cells: SF9 insect cells (baculovirus)
Kind of assay: Human PI3K gamma enzyme assay (HTRF). Conditions: at a 1.0 μM concentration; read-out: PI3Kγ Percent Inhibition. The gist of the method:
as §1

The target of a further assay is T5, Human VPS34 (Homo sapiens, UniProt Q8NEB9).
T5 construct: GST (with thrombin site, pDEST20-Thrombin) (N); host or cells: SF9 insect cells (baculovirus)
Kind of assay: Human VPS34 enzyme assay (Adapta Universal Kinase Assay). The note with it: at a 1.0 μM concentration; read-out: VPS34 Percent Inhibition. The source says: The catalytic subunits of PI3Ks are cloned into either pDEST8(p110 alpha) or pDEST10(p110beta, p110delta, and p110gamma) as N-terminal His tagged fusion proteins using the Gateway system (Invitrogen, catalog#11804-010 for pDEST8 and 11806-015 for pDEST10). The sequences are verified before recombinant protein expression using the Baculovirus Expression System with Gateway® Technology. The accession numbers for the subunits are as follows: • p110 alpha (GB:U79143) • p110beta (GB: S67334) • p110delta (GB: U86453) • p110gamma (GB: X83368) • The regulatory subunits of PI3Ks are cloned into pDEST8 as un-tagged protein using the Gateway system (Catalog#11804-010). The sequences are verified before recombinant protein expression using the Baculovirus Expression System with Gateway® Technology. The accession numbers for the subunits are as following: • p85 alpha (GB: BC030815) • p101(GB: AB028925) • VPS34 (accession number GB:BC033004) is cloned into pDEST20—Thombin as N-terminal GST tagged fusion proteins using the Gateway system (Invitrogen, catalog#11804-013). The sequences are verified before recombinant protein expression using the Baculovirus Expression System with Gateway® Technology.
For expression VPS34 was infected at 1MOI in SF9 cells and harvested 72 hours post infection.
For purification, VPS34 is purified by Glutathione Sepharose 4 Fast Flow (GE Healthcare #17-5132-03) followed by HiTrap Q (GE Healthcare #17-1153-01).
3) VPS34 is assayed using Adapta™ Universal Kinase Assay Kit (Invitrogen).
4) Human VPS34 enzyme assay method
100 nL compounds in DMSO are added to wells of a 384 well microtitre plate (Greiner 780076). At room temperature: 5 ul VPS34 reaction buffer (Invitrogen Assay Buffer Q (diluted 1 in 5 with nanopure water) plus 2 mM DTT and 2 mM MnCl2) containing ATP (20 uM, Promega) and 200 uM PI—PS substrate (Invitrogen PV5122) is added followed immediately by 5 ul VPS34 reaction buffer (as above) containing VPS34 (5 nM, Millennium Protein Sciences Group) and the mixture is incubated with shaking at room temperature for 1 hour. Then 5 ul VPS34 stop-detect mix (as per Invitrogen Adapta Assay kit (PV5009) instructions (contains kinase quench buffer, TR-FRET buffer, Adapta Eu anti-ADP antibody and Alexa Fluor 647 ADP tracer)) is added to quench the reaction. The plates are then incubated for 30 minutes at room temperature with shaking and then read on a BMG PheraStar Plus reader.
For the assay methods described above, test compound percent inhibition, at various concentrations, is calculated relative to control (DMSO and EDTA) treated samples. Compound concentration versus percent inhibition curves are fitted to generate IC50 values. One skilled in the art will appreciate that the values generated either as percentage inhibition at a single concentration or IC50 values are subject to experimental variation.

T4 sequence (P48736 whole entry): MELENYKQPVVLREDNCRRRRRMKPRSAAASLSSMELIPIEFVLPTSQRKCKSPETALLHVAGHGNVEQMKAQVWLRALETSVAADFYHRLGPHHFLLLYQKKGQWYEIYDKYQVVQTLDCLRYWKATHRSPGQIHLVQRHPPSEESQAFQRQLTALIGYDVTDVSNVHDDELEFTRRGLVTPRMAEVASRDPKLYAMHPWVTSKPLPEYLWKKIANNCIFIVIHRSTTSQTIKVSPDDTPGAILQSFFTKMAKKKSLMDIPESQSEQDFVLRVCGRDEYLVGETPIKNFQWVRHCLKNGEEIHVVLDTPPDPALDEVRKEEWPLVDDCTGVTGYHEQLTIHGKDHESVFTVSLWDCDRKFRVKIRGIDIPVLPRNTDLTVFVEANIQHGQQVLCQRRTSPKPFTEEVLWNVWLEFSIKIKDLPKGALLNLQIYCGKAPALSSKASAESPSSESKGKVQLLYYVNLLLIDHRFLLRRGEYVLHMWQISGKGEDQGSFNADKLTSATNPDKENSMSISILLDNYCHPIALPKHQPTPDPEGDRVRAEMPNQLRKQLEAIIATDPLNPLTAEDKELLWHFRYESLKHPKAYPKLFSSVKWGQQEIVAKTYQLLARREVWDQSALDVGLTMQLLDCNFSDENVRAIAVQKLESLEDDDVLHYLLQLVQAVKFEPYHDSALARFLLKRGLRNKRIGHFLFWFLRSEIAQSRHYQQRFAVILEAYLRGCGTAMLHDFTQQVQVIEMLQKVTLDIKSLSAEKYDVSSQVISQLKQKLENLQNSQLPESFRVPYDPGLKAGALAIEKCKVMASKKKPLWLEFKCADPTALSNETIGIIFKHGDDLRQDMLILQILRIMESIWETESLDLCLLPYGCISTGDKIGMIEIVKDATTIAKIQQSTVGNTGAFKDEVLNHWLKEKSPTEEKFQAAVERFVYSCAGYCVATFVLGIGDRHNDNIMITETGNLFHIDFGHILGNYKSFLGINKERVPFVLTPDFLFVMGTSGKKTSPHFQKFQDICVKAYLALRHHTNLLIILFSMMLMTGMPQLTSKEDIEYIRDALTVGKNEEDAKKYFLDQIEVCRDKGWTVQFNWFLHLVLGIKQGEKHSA
T2 sequence (P42338 whole entry): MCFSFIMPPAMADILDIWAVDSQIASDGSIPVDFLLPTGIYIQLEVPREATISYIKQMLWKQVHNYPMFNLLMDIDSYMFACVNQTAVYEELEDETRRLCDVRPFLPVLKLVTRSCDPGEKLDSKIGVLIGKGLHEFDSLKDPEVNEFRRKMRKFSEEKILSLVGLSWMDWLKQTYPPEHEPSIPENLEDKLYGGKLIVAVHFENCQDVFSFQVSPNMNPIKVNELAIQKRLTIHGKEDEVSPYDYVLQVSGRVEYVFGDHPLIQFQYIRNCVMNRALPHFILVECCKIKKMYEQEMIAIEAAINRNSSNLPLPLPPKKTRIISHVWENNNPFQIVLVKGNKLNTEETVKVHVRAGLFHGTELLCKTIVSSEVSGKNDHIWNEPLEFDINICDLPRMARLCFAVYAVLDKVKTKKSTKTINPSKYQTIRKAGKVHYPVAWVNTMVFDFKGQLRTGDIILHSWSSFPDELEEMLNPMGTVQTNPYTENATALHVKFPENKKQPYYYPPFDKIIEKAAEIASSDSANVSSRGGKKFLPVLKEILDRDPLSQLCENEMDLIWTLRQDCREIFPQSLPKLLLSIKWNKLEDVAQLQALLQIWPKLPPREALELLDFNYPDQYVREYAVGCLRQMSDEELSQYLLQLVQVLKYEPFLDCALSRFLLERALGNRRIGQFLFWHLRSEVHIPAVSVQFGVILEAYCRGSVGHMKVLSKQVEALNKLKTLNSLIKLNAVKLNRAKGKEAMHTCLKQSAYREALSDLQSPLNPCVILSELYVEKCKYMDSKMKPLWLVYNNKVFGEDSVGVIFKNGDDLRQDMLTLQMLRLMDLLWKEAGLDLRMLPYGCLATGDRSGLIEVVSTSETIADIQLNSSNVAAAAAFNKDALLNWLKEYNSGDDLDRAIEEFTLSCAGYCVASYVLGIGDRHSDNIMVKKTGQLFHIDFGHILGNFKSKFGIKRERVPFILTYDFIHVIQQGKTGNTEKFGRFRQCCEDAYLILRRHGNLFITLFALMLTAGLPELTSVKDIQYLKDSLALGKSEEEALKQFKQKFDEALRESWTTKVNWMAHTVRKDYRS
T2 sequence (P27986 whole entry partner): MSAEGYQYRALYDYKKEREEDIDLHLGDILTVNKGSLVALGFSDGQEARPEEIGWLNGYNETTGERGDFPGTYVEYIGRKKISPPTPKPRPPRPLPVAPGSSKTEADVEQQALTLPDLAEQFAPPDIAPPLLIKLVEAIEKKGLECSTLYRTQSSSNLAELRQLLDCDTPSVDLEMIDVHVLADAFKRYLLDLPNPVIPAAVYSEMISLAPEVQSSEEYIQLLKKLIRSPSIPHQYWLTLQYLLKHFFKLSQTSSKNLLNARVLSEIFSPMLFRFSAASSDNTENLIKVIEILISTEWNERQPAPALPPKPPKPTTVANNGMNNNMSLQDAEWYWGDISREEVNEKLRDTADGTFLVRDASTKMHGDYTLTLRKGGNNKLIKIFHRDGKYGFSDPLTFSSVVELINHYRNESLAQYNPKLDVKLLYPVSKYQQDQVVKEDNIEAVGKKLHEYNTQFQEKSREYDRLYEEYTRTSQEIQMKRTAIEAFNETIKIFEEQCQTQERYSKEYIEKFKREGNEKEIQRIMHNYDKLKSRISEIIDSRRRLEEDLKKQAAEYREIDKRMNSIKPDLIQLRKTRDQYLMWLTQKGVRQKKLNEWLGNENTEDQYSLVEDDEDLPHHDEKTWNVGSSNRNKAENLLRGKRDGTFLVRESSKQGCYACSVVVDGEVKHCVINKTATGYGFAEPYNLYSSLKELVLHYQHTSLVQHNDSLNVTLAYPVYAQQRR
T1 sequence (P42336 whole entry): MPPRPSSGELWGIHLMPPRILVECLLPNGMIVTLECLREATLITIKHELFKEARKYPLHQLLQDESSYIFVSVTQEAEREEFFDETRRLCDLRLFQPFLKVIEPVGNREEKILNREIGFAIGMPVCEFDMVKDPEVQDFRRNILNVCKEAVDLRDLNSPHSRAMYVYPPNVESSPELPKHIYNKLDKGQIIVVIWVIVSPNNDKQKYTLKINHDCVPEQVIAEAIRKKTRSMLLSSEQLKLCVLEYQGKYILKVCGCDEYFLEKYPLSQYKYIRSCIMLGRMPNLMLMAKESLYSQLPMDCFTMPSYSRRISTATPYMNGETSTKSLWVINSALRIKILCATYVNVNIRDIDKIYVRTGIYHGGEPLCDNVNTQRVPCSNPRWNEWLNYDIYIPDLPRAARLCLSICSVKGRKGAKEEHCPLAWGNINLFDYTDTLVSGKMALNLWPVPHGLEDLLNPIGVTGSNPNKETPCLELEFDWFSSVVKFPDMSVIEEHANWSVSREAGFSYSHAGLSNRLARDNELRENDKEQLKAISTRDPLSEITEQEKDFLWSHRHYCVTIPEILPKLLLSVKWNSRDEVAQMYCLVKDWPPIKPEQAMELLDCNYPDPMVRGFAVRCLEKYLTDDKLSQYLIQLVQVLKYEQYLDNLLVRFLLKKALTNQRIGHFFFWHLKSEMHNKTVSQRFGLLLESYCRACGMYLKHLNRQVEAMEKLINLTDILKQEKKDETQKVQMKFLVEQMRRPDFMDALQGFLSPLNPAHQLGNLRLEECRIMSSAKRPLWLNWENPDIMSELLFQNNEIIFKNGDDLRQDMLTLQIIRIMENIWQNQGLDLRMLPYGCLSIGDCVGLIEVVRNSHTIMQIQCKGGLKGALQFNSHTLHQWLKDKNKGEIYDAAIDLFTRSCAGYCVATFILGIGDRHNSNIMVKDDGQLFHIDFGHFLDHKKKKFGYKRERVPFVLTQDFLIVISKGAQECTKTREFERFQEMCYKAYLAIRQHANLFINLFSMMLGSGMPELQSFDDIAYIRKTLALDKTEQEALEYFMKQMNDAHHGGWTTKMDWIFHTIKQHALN
T1 sequence (P27986 whole entry partner): as the sequence (P27986 whole entry partner) above
T5 sequence (Q8NEB9 whole entry): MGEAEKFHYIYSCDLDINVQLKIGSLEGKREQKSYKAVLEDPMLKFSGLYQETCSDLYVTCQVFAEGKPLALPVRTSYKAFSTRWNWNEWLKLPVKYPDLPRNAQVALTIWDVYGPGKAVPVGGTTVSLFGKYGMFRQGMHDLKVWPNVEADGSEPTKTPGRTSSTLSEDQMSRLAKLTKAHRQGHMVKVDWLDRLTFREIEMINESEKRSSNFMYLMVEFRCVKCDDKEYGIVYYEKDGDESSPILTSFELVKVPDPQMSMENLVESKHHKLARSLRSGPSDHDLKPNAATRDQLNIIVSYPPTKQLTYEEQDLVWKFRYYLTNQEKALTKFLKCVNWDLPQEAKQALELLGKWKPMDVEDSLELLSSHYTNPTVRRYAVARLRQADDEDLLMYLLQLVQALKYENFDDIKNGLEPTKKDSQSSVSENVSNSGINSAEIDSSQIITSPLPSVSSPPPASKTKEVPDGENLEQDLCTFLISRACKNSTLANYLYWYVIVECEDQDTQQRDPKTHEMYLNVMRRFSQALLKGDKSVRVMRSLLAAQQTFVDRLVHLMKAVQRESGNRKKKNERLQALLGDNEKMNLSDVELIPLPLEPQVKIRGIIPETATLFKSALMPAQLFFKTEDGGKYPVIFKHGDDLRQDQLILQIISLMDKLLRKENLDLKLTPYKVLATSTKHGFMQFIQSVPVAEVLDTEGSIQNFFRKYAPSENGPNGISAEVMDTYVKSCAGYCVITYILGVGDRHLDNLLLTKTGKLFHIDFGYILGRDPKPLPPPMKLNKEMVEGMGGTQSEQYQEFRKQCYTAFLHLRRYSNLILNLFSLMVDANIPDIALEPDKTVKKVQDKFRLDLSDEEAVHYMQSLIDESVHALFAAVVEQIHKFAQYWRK

For the compound `COc1ccc(Cc2nc(N3CCOCC3)sc2C(=O)O)cc1` [Compound 103], the inhibition (in general, the drop in the measured response relative to a control, in per cent) at 1.1 µM at Human PI3K alpha is 2%; at Human PI3K beta, 71%. The inhibition at 1 µM on Human PI3K delta was determined as 38.6%; at Human PI3K gamma, 6.4%; on Human VPS34, 7.2%.
For `O=C(O)c1sc(N2CCOCC2)nc1Cc1ccc(Cl)c(Cl)c1` [Compound 114] the same measures were 40%, 106%, 113%, 56.9% and 131%.
Consider `O=C(O)c1sc(N2CCOCC2)nc1Cc1ccc(F)cc1` [Compound 119], for which the inhibition at 1.1 µM stood at 9% on Human PI3K alpha and 88% at Human PI3K beta. Further, the inhibition at 1 µM on Human PI3K delta was determined as 62.6%; on Human PI3K gamma, 7.6%; on Human VPS34 it was 19.5%.
For `O=C(O)c1sc(N2CCOCC2)nc1Cc1ccc(OC(F)(F)F)cc1` [Compound 109] the same measures were 6%, 76%, 35.4%, 3.9% and 24%.
For `N#Cc1c(N2CCOCC2)sc(C(=O)O)c1Cc1ccc(Cl)cc1` [Compound 116] the same measures were 46%, 98%, 83%, 36.7% and 54.2%.
The corresponding values for `N#Cc1c(N2CCOCC2)sc(C(=O)O)c1Cc1ccc(Br)cc1` [Compound 106] are 58%, 103%, 88.8%, 51.8% and 34.4%.
In the case of `COc1ccc(Cc2c(C(=O)O)sc(N3CCOCC3)c2C#N)c(Cl)c1` [Compound 117], the inhibition at 1.1 µM at Human PI3K alpha was 48%; on Human PI3K beta, 94%. Also, the inhibition at 1 µM on Human PI3K delta stood at 78.5%; on Human PI3K gamma, 14.7%; at Human VPS34, 28.6%.
The corresponding values for `N#Cc1ccc(Cc2c(C(=O)O)sc(N3CCOCC3)c2C#N)cc1` [Compound 115] are 45%, 97%, 63%, 12% and 39.7%.
The corresponding values for `O=C(O)c1sc(N2CCOCC2)nc1Cc1ccc(C(F)(F)F)cc1` [Compound 111] are 7%, 77%, 60.5%, 6.9% and 46.8%.
The corresponding values for `COc1ccc(Cc2nc(N3CCOCC3)sc2C(=O)O)c(Cl)c1` [Compound 120] are 18%, 97%, 77%, 11% and 38.3%.
`COc1cc(Cl)ccc1Cc1c(C(=O)O)sc(N2CCOCC2)c1C#N` [Compound 125]: the inhibition at 1.1 µM on Human PI3K alpha was determined as 46%; on Human PI3K beta, 99%. The inhibition at 1 µM was found to be 85.1% at Human PI3K delta, 25.9% at Human PI3K gamma and 37.1% at Human VPS34.
